# Literature values as cited in US4663309A, “Novel peptide hormones with calcitonin-like activity” (University Patents, Inc., priority 1985, dated 1987).
# Experiments:
# [1] = literature value; cited from earlier work
# [2] = molecular target: T1, calcitonin receptors (brain particulate fraction) (Rattus norvegicus, UniProt P32214); set-up: from tissue; conditions: rat brain homogenates; literature value; read-out: IC50, [125I]-SCT-I binding to rat brain, value found by Nakamuta et al.; cited from earlier work
# T1 sequence (P32214 25-516): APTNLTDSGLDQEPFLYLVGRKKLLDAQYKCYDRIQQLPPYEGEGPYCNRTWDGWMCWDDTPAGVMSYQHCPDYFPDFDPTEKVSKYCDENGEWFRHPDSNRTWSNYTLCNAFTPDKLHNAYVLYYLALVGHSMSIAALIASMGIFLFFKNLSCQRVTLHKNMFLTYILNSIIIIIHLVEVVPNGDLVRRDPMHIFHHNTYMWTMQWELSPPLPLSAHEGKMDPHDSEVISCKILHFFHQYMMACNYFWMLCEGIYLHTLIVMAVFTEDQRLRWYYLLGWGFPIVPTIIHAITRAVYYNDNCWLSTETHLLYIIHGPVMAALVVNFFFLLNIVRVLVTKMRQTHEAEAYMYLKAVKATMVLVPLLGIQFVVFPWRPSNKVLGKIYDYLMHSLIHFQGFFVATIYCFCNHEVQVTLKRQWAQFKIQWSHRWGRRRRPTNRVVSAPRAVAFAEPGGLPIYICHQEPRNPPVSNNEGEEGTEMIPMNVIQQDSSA
substance,measurement,setting,value
porcine calcitonin [PCT],α-helicity in 50% 2-chloroethanol (Brewer and Edelhoch),[1],50%
same,IC50,[2],17 nM
